# Test system: U23674 (mouse alveolar rhabdomyosarcoma primary culture)
# 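Further: alveolar rhabdomyosarcoma tumor culture.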
row,SMILES,IC50 cell viability [µM]
1,O=C(Nc1ccc(Oc2ccc3nc(NC(=O)c4ccccc4)[nH]c3c2)cc1)Nc1cc(C(F)(F)F)ccc1F,> 10
2,COc1cc2ncn(-c3cc(O[C@H](C)c4ccccc4Cl)c(C(N)=O)s3)c2cc1OC,0.1
3,COc1cc(/C=N/Nc2ncnc3[nH]ncc23)ccc1O,> 10
4,Cc1ccc(C(=O)NC(C)C)cc1-c1ccc(C(=O)NCC2CC2)cc1,> 10
5,COc1cccc(-n2ncc3c(N/N=C/c4ccc(C)cc4)ncnc32)c1,> 10
6,CCn1c(-c2nonc2N)nc2c(C#CC(C)(C)O)nc(OC[C@H](N)c3ccccc3)cc21,1.6
7,COc1cc(N2CCN(C(C)C)CC2)ccc1Nc1nc(Nc2cccc(F)c2C(=O)O)c2cc[nH]c2n1,> 10
8,Cc1cccc(Nc2ncc(-c3ccccc3)o2)c1,> 10
9,NC(=O)c1sc(-n2cnc3ccc(C(F)(F)F)cc32)cc1OCc1ccccc1Br,> 10
10,NS(=O)(=O)c1cccc(-c2cc3ccncc3cc2OCc2ccccc2)c1,> 10
11,CN(c1ccc(NC(=O)NCCN2CCOCC2)cc1)c1ccnc(Nc2ccc(CS(C)(=O)=O)cc2)n1,> 10
12,CCN1CCC(C(=O)Nc2n[nH]c3nnc(-c4cccc(F)c4F)cc23)CC1,> 10
13,CC(C)c1ccc2c(N=Nc3ccc(S(N)(=O)=O)cc3)c(O)[nH]c2c1,> 10
14,COc1ccc2[nH]c3c4[nH]c5ccc(OC)cc5c4c4c(c3c2c1)C(=O)NC4=O,> 10
15,FC(F)(F)c1cccc(Nc2nccc(-c3cnn4nc(-c5ccccc5)ccc34)n2)c1,> 10
16,Cc1c2ccc(N(C)c3ccnc(Nc4cccc(S(N)(=O)=O)c4)n3)cc2nn1C,> 10
17,Oc1[nH]c2ccccc2c1C=Nc1ccc(-n2cncn2)cc1,> 10
18,NS(=O)(=O)c1ccc(-c2cc3ccncc3cc2OCc2ccccc2)cc1,> 10
19,COC(=O)Nc1nc2ccc(Oc3ccc(NC(=O)Nc4cc(C(F)(F)F)ccc4F)cc3)cc2s1,> 10

row,SMILES,IC50 cell viability [µM]
1,NS(=O)(=O)c1ccc(N=Nc2c(O)[nH]c3ccc(C(=O)NCc4ccncc4)cc23)cc1,> 10
2,CCOc1nccc2c1nc(-c1nonc1N)n2CC,> 10
3,CN(C)CCCNc1nccc(-c2c(-c3ccc(F)cc3)nn3cc(C(F)(F)F)ccc23)n1,2.2
4,COc1cc(Nc2nccc(Nc3ccc4c(C)[nH]nc4c3)n2)cc(OC)c1OC,5.6
5,CCn1c(-c2nonc2N)nc2c(C#CC(C)(C)O)nc(OC[C@@H](N)c3ccccc3)cc21,> 10
6,Cc1ccc2c(-c3ccnc(Nc4cccc(C(F)(F)F)c4)n3)c(-c3ccccc3)nn2n1,> 10
7,Nc1nccc(-c2c(-c3ccc(F)cc3)ncn2CCCN2CCOCC2)n1,> 10
8,c1cnn2ncc(-c3ccnc(NCCCN4CCOCC4)n3)c2c1,> 10
9,CCS(=O)(=O)c1ccc(OC)c(Nc2ncc(-c3cccc(F)c3)o2)c1,> 10
10,COc1cc2ncn(-c3cc(OCc4cccs4)c(C(N)=O)s3)c2cc1OC,> 10
11,CC1=C(C(=O)Nc2cc(Cl)c3[nH]ncc3c2)C(c2ccc(C(F)(F)F)cc2)CC(=O)N1 (stereo not drawn),> 10
12,CCn1c(-c2nonc2N)nc2c(C#CC(C)(C)O)ncc(OC3CCNCC3)c21,> 10
13,CS(=O)(=O)CCNCc1ccc(-c2ccc3ncnc(Nc4ccc(OCc5ccccc5)c(Br)c4)c3c2)o1,> 10
14,CCS(=O)(=O)c1ccc(OC)c(Nc2ncc(-c3cccc(-c4ccccc4F)c3)o2)c1,> 10
15,Cc1cc(O)cc(C)c1/C=C/c1cncc(C(=O)OC(C)(C)C)c1,> 10
16,COc1cc(C)c(NC(=O)CN(C)C)cc1Nc1nc(Nc2cccc(F)c2C(N)=O)c2cc[nH]c2n1,> 10
17,CCCN1CCCC(c2ccc(Nc3nc(Nc4cc(F)ccc4C(N)=O)c4cc[nH]c4n3)c(OC)c2)C1 (stereo not drawn),1.4
18,Cc1ccc(Nc2ccnc(Nc3cccc(C(N)=O)c3)n2)cc1O,> 10
19,CCS(=O)(=O)c1ccc(OC)c(Nc2ncc(-c3ccccc3Cl)o2)c1,> 10
